Values after ≈ are worked out from the molar mass of the structure shown. Read-outs that look alike come from different tables or passages of the source.
Assays:
[1] = Aqueous kinetic solubility in PBS buffer; format: physicochemical
Description: (§1) The rat liver microsomal stability, parallel artificial membrane permeability assay (PAMPA), and aqueous kinetic solubility assay in phosphate-buffered saline (PBS) buffer were performed as described in the indicated references.

[2] = Parallel artificial membrane permeability assay (PAMPA); format: in vitro ADME; conditions: for Papp: pH 7.4, PAMPA, pH7.4, read-out: Permeability(pH7.4) (PAMPA_Pion_Lipid 1e-6 cm/s)
Description: as §1

Bovine Xanthine Oxidase = target: T1, Bovine Xanthine Oxidase (Bos taurus, UniProt P80457); assay: Xanthine oxidase / hypoxanthine luminol chemiluminescence assay; format: biochemical; conditions: xanthine oxidase with hypoxanthine; mean ± SD, n in cell; read-out: X/XO IC50
T1 construct: purchased Sigma
T1 sequence (P80457 whole entry): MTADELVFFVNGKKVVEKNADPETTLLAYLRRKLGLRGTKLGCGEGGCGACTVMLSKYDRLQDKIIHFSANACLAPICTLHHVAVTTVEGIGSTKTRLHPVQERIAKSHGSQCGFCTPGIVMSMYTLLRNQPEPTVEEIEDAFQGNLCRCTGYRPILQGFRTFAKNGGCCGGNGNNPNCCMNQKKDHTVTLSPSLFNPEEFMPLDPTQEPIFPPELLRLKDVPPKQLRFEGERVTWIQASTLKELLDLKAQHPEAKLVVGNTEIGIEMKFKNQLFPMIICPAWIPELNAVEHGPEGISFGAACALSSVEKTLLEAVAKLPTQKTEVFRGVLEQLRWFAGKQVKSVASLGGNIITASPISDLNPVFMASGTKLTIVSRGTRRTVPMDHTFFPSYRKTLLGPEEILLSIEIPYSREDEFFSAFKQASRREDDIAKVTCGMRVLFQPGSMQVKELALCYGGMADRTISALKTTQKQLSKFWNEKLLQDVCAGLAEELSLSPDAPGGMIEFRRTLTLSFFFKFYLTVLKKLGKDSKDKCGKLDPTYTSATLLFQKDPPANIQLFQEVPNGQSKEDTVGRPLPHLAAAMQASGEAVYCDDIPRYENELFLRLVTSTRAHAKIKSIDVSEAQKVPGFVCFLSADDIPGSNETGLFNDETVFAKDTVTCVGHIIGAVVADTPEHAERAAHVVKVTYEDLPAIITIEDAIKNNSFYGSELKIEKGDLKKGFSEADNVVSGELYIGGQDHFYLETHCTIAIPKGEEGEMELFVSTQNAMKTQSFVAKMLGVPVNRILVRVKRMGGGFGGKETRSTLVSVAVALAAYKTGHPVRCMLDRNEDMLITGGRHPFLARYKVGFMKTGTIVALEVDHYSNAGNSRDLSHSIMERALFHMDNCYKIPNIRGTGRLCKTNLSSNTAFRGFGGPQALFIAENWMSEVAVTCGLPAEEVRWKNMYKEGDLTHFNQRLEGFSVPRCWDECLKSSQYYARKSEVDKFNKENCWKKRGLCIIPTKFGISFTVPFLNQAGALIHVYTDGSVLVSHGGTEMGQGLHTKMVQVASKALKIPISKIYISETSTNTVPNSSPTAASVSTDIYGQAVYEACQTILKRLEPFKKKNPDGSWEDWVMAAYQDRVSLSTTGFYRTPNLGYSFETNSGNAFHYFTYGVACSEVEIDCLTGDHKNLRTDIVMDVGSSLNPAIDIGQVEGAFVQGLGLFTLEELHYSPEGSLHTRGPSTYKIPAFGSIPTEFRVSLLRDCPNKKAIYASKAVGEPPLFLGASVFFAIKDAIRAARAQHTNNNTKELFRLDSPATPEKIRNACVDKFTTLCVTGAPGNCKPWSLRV
Description: Bovine Xanthine Oxidase (Sigma) was dialyzed in PBS to remove ammonium sulfate and stored at 4 °C. Hypoxanthine was prepared by heating in DMSO. Reactions were prepared by diluting xanthine oxidase in HBSS (final concentration 1.25 mU/mL) that contained 50 μM luminol and were preincubated 5 min with control or inhibitor before the addition of hypoxanthine at a final concentration of 0.5 mM. Luminescence was measured at 24 °C as described above.

NOX2 [3] = conditions: read-out: IC50 for NOX2, originally reported; cited from earlier work
xanthine oxidase = conditions: cited from earlier work
[4] = Rat liver microsomal stability; format: in vitro ADME; conditions: for half-life: SD, rat, liver microsomes, read-out: Rat_SD/Microsomes t1/2 (m)
Description: as §1

NOX2 [5] = target: T2, NOX2 (Mus musculus, UniProt Q61093); assay: NOX2 activity in primary mouse neutrophils enriched from bone marrow; format: cell-based; conditions: SD, n = 8 mice
T2 construct: relative potencies in primary mouse neutrophils enriched from bone marrow; endogenous in cells; host or cells: primary mouse bone-marrow granulocytes
T2 sequence (Q61093 2-570 limits assumed): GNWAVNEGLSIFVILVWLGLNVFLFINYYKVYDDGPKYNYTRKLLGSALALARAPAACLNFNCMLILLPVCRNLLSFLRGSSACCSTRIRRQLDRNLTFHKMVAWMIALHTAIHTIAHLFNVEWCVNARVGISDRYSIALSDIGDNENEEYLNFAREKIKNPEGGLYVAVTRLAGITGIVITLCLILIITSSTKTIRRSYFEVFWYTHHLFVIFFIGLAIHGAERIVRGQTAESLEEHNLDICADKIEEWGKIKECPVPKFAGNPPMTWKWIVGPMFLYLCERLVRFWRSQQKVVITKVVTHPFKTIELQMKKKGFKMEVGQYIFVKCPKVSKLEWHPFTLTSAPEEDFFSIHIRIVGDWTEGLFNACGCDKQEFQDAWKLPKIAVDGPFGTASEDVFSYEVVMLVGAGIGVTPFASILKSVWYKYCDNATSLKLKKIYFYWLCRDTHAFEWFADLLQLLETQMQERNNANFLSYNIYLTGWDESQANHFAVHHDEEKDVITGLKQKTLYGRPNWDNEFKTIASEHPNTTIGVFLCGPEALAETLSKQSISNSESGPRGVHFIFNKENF
T2 sequence (Q61462 2-192 partner limits assumed): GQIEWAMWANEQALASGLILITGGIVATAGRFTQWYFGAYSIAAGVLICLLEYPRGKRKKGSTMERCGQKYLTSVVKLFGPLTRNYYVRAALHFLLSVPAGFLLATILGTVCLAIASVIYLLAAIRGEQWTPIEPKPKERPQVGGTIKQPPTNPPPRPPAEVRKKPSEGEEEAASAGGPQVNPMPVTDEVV
Description: (§2) Human blood was obtained after informed consent by the Department of Transfusion Medicine (NIH Clinical Center) and provided as de-identified specimens. Human granulocytes were isolated using Percoll density fractionation as described and NOX2 activity was assessed in white polypropylene flat bottom 96 well plates following 15 min of preincubation at 37 °C with compounds or vehicle controls using 50 μM luminol as a chemiluminescence enhancer in an assay volume of 100 μl RPMI1640 with 1.1 × 10^5 cells/well in Varioskan Lux luminometer for 30 cycles of 1 s per well (approximately 1 h).
Mouse granulocytes were isolated from bone marrow essentially as described except bones were not sterilized in ethanol and marrow was not flushed through a 100 μm strainer. Furthermore, RPMI1640 was supplemented with 10% FBS, 2 mM EDTA, and 25 mM HEPES buffer and penicillin/streptomycin was omitted. Polymorphonuclear leukocytes (PMN) concentration and purity (>90% granulocytes) were assessed microscopically using 3% acetic acid and a hemacytometer. NOX2 activity was assessed as described above with human granulocytes.

NOX1-NOX5 = assay: Expi293 whole cell assays, comparison across panel of NOX family members; format: cell-based, human
Description: Given concerns about previous assays for specific NOX family members we here report the first use of the Expi293 Expression System (Thermo Scientific) to overexpress NOX1, 2, 3, 4, and 5 in excess of any endogenous NOX proteins present in these cells. Transfections were performed following the manufacturer's instructions using the plasmids for each NOX as described in Supplemental Table 2 except that the enhancer solution provided with the Expi293 system was not used because it promoted enzyme activation.
After the times indicated in Supplemental Table 2, cells were washed and 50,000 added per well of a white 96-well plate (Greiner) along with 50 μM Luminol and 2.5 U horseradish peroxidase/mL in a volume of 90 μl for NOX1, NOX2, and NOX5. Inhibitors or vehicle controls were added and cells were incubated for 20 min at 37 °C prior to activation with the indicated stimuli. For NOX3 and NOX4 (constitutively active), cells were incubated with inhibitor or vehicle control prior to the addition of luminol and HRP. Chemiluminescence was measured every 2 min for 1 s per well at 37 °C in a Varioscan Multimode reader. AUC data were analyzed using GraphPad Prism using non-linear regression analysis after expressing relative to control alone (maximum ROS production).

NOX2 [6] = target: T3, NOX2 (Homo sapiens, UniProt P04839); assay: NOX2 activity in primary human granulocytes (PMN), luminol chemiluminescence; format: cell-based; set-up: When tested against NOX2 in primary human neutrophils; endogenous in cells; host or cells: primary human granulocytes (PMN) from donor blood; conditions: mean ± SD, n in cell; read-out: NOX-2 IC50 from PMN
T3 sequence (P04839 2-570 limits assumed): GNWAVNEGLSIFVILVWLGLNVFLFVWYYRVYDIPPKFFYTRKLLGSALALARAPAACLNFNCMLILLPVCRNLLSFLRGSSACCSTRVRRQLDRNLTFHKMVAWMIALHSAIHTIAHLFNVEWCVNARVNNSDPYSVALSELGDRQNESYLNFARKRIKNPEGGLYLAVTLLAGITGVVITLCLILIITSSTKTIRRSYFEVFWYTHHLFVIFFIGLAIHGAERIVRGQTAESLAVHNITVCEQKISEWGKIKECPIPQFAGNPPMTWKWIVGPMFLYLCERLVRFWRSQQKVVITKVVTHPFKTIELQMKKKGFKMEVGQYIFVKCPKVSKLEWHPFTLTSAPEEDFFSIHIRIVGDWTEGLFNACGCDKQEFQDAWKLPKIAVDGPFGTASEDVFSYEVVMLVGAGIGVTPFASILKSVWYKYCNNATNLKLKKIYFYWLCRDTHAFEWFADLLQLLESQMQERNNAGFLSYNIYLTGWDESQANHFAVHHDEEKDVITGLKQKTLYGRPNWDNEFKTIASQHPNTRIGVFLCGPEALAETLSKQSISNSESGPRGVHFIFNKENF
T3 sequence (P13498 2-195 partner limits assumed): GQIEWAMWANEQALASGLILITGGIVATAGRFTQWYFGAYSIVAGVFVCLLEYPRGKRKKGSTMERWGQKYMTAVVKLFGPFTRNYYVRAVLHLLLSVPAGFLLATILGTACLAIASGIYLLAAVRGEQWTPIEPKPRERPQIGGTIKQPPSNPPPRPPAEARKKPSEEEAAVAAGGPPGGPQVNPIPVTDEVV
Description: as §2

[7] = aqueous buffer, kinetic from dmso stock, read-out: Solubility

Row | SMILES | solubility [1] [µg/mL] | Permeability(pH7.4) (PAMPA_Pion_Lipid 1e-6 cm/s) [2] | IC50 (Bovine Xanthine Oxidase) [nM] | Rat_SD/Microsomes t1/2 (m) [4] [m] | IC50 (NOX2 [5]) [nM] | IC50 (NOX2 [6]) [nM] | solubility [1, 7] [µg/mL] | Papp [2] [×10⁻⁶ cm/s] | half-life [4] [min] | IC50 (NOX2 [3]) [nM] | greater concentrations required to inhibit xanthine oxidase than NOX2 (xanthine oxidase) [x] | differences in activity across the panel of NOX family members (NOX1-NOX5)
1 | CC(C)n1cc(-c2ccc3c(c2)N(C)CC3)c2c(NS(=O)(=O)c3ccn(C)n3)ccnc21 [GSK2795039, reference compound] | 36.7 (≈ 81.5 µM) | […] | […] | 1.02 | 2170 ± 1110 |  |  |  |  | […] | […] | unable to demonstrate significant differences in activity
2 | CCn1cc(-c2ccc3c(c2)N(C2CC2)CC3)c2c(N[S+](=O)([O-])c3ccn(C)n3)ccnc21 [NCGC00650067, CCN1C=C(C2=C(N[S+]([O-])(=O)C3=NN(C)C=C3)C=CN=C12)C4=CC5=C(CCN5C6CC6)C=C4] |  |  | 7610 ± 10200 |  |  | 2400 ± 2260 | 13.9 (≈ 30 µM) | 819 | 1 |  |  | 
3 | CN(C)C1CCc2ccc(-c3cn(C4CC4)c4nccc(N[S+](=O)([O-])c5ccn(C)n5)c34)cc21 (stereo not drawn) [NCGC00650075, CN(C)C1CCC2=C1C=C(C=C2)C3=CN(C4CC4)C5=NC=CC(N[S+]([O-])(=O)C6=NN(C)C=C6)=C35] |  |  | 3200 |  |  | 55.5 | 39.7 (≈ 83.3 µM) | 293 | 14 |  |  | 
4 | O=[S+]([O-])(Nc1ccnc2c1c(-c1ccc3c(c1)N(C1CC1)CC31CC1)cn2C1CC1)c1ccn(C2CC2)n1 [NCGC00650101, [O-][S+](=O)(NC1=C2C(=CN(C3CC3)C2=NC=C1)C4=CC5=C(C=C4)C6(CC6)CN5C7CC7)C8=NN(C=C8)C9CC9] |  |  | 1220 ± 320 |  |  | 11600 ± 8720 | 36.8 (≈ 69.9 µM) | 81.8 | 1.2 |  |  | 

Now from value to compound, other results behind:

Row | solubility [1] [µg/mL] | Permeability(pH7.4) (PAMPA_Pion_Lipid 1e-6 cm/s) [2] | IC50 (Bovine Xanthine Oxidase) [nM] | Rat_SD/Microsomes t1/2 (m) [4] [m] | IC50 (NOX2 [5]) [nM] | IC50 (NOX2 [6]) [nM] | solubility [1, 7] [µg/mL] | Papp [2] [×10⁻⁶ cm/s] | half-life [4] [min] | SMILES | IC50 (NOX2 [3]) [nM] | greater concentrations required to inhibit xanthine oxidase than NOX2 (xanthine oxidase) [x] | differences in activity across the panel of NOX family members (NOX1-NOX5)
5 |  |  | 2300 |  |  | 11800 | 13.1 (≈ 24.6 µM) | 907 | 0.9 | Cn1ccc([S+](=O)([O-])Nc2ccnc3c2c(-c2ccc4c(c2)N(C2CC2)CC4)cn3CC2CCOCC2)n1 [NCGC00650068, CN1C=CC(=N1)[S+]([O-])(=O)NC2=C3C(=CN(CC4CCOCC4)C3=NC=C2)C5=CC6=C(CCN6C7CC7)C=C5] |  |  | 
6 |  |  | 19000 |  |  | > 20000 | 31.1 (≈ 69.2 µM) | 182 | 18.2 | Cn1ccc([S+](=O)([O-])Nc2ccnc3c2c(-c2ccc4c(c2)C(O)CC4)cn3C2CC2)n1 (stereo not drawn) [NCGC00650073, CN1C=CC(=N1)[S+]([O-])(=O)NC2=C3C(=CN(C4CC4)C3=NC=C2)C5=CC6=C(CCC6O)C=C5] |  |  | 

Source: publication PMC9894920, “Development of an improved and specific inhibitor of NADPH oxidase 2 to treat traumatic brain injury” (Redox Biology, 2023)
